Measurements published in patent US20240082282A1 (priority 2020, published 2024).

Test system: murine gut microbiome
Test: Impact on the murine fecal microbiome (16S rRNA sequencing)
Conditions: mouse, in vivo
Procedure: Stool samples were collected and V4 region of the 16s rRNA gene was amplified using primers and sequenced (IonTorrent).
Fecal pellets were collected 3 days before and 3 days after antibiotic treatment and were stored at −80° C. in PBS. Sequencing of a stool pellet from each mouse from before and after treatment was performed by MR DNA (www.mrdnalab.com, Shallowater, TX, USA) on an Ion Torrent PGM. Using PCR primers, the V4 variable region of the 16SrRNA gene was amplified in a single-step 30 cycle PCR with the HotStarTaq Plus Master Mix Kit (Qiagen, USA). The following conditions were used: 94° C. for 3 minutes and 30 cycles of 94° C. for 30 seconds, 53° C. for 40 seconds and 72° C. for 1 minute, then a final elongation step for 5 minutes at 72° C. […] Barcodes and primers and then sequences<150 bp were removed. Further, sequences with homopolymer runs exceeding 6 bp and sequences with ambiguous calls were removed. The sequences were then denoised, OTUs were generated, and chimeras were removed; OTUs were clustered at 3% divergence. Taxonomic classification was performed using BLASTn against a database derived from RDPII available at www.rdp.cme.msu.edu) and NCBI (www.ncbi.nlm.nih.gov). The change in relative abundance of the most abundant genera from before to after treatment of each individual mouse was reported. Further, raw sequences were processed in Qiita (Gonzalez, A., et al. (2018). Nat Methods 15, 796-798; the contents of which are herein incorporated by reference in its entirety) and were demultiplexed, trimmed to 100 bp, and closed reference OTU picking was performed against the Greengenes database at 97% similarity (McDonald, D. et al. (2012). ISME J 6, 610-618; the contents of which are herein incorporated by reference in its entirety). The alpha diversity based on the Simpson index was calculated in Qiita. The change in the Simpson index was calculated for the fecal microbiome of each mouse from before to after treatment. Statistical significance was calculated using a one-way ANOVA with Tukey's multiple comparisons test (p<0.05).

Changes in the composition of the microbiota: significant changes
Compound: CC1(C)S[C@@H]2[C@H](NC(=O)[C@H](N)c3ccccc3)C(=O)N2[C@H]1C(=O)O [Ampicillin, reference compound]
